Test results published in patent US8507506B2, “Theophylline derivative inhibits osteoporosis” (Kaohsiung Medical University, priority 2011, dated 2013).
Marks after values point to notes of the source that are not given here.

Assays:
Type in all cases: cell-based
[1] = test system: NFATc1 protein in RAW264.7 cells; assay: Western blot, expression of NFATc1 induced by RANKL; settings: 5 μM, 7.5 μM and 10 μM, RANKL 24 hours, FIG. 13
Experimental: The proteins were collected by scraping and were centrifuged (13,000 rpm, 4° C., 30 minutes). The supernatant was stored in an eppendorf in −80° C. • c) Concentrations of the proteins were examined by Bio-Red DC Protein Assay. After knowing the concentrations, the proteins were diluted to specific concentrations by adding ddH2O. One forth volume of the diluted proteins of sample buffer was added into the diluted proteins and was put in boiled water for 5 min and then was chilled on ice for 5 minutes. After short time centrifugation, the diluted proteins could be injected into wells of a gel. The gel was run at 100 V for 10 minutes until the proteins were driven to the intersection between a loading gel and a running gel. Then, the voltage was swopped to 200 V for 40 minutes. • d) A PVDF membrane was immersed in Methanol for 2 minutes. After two washes in ddH2O, the membrane was immersed in transfer buffer for 15 minutes. A SDS-PAGE was put on the membrane, and wet paper was flanked them. The proteins were transferred to the PVDF membrane using a semi-dry transfer at 20 V for 30 minutes. • e) The band of the PVDF membrane was trimmed and was added by suitable amount of blocking buffer (5% skim milk in washing buffer) and then was shaken for 1 hour in room temperature to block non specific bindings. Then, the band was covered by a diluted 1° antibody overnight in 4° C. […]

[2] = test system: MMP-9 protein in RAW264.7 cells; assay: Western blot, amount of MMP-9 protein induced by RANKL; settings: RANKL 24 hours, FIG. 19
Experimental: KMUP-1 influences there major up-stream signal transduction pathways which are related to RANK/RANKL. Western blot is used to estimate the amount of matrix metalloproteinase (MMP)-2 and MMP-9 which are related to the dissolution of osteoclast-like cells, and the enzyme activity of MMP-2 and MMP-9 are estimated via Gelatin Zymography. […] The proteins were collected by scraping and were centrifuged (13,000 rpm, 4° C., 30 minutes). The supernatant was stored in an eppendorf in −80° C. • c) Concentrations of the proteins were examined by Bio-Red DC Protein Assay. After knowing the concentrations, the proteins were diluted to specific concentrations by adding ddH2O. One forth volume of the diluted proteins of sample buffer was added into the diluted proteins and was put in boiled water for 5 min and then was chilled on ice for 5 minutes. After short time centrifugation, the diluted proteins could be injected into wells of a gel. The gel was run at 100 V for 10 minutes until the proteins were driven to the intersection between a loading gel and a running gel. Then, the voltage was swopped to 200 V for 40 minutes. • d) A PVDF membrane was immersed in Methanol for 2 minutes. After two washes in ddH2O, the membrane was immersed in transfer buffer for 15 minutes. A SDS-PAGE was put on the membrane, and wet paper was flanked them. […]

[3] = test system: Akt phosphorylation in RAW264.7 cells; assay: Western blot, phosphorylation of Akt induced by RANKL; settings: 10 ng/ml RANKL for 30 minutes, dose dependent, FIG. 17
Experimental: RANKL can activate PI3K/Akt pathway to maintain the existence and the proliferation of osteoclast-like cells and prevent the apoptosis. The Akt phosphorylation level which is induced by RANKL is examined at different time points. The induced Akt phosphorylation is most apparent when it is induced by 10 ng/ml RANKL for 30 minutes. Therefore, 30 minutes are used to be the time point for inducing Akt phosphoryaltion. […] The proteins were collected by scraping and were centrifuged (13,000 rpm, 4° C., 30 minutes). The supernatant was stored in an eppendorf in −80° C. • c) Concentrations of the proteins were examined by Bio-Red DC Protein Assay. After knowing the concentrations, the proteins were diluted to specific concentrations by adding ddH2O. One forth volume of the diluted proteins of sample buffer was added into the diluted proteins and was put in boiled water for 5 min and then was chilled on ice for 5 minutes. After short time centrifugation, the diluted proteins could be injected into wells of a gel. The gel was run at 100 V for 10 minutes until the proteins were driven to the intersection between a loading gel and a running gel. Then, the voltage was swopped to 200 V for 40 minutes. • d) A PVDF membrane was immersed in Methanol for 2 minutes. After two washes in ddH2O, the membrane was immersed in transfer buffer for 15 minutes. […]

[4] = test system: IL-1β secretion by RAW264.7 cells; assay: ELISA, RANKL-induced secretion of IL-1β; settings: RAW264.7, ELISA, FIG. 6
Experimental: Under RANKL stimulation, mononuclear RAW264.7 cells can secrete pro-inflammatory cytokines such as TNF-α, IL-1, IL-6, etc. ELISA is used to measure that KMUP-1 influences RANKL to induce the secretion of pro-inflammatory cytokines. […] 10^5 cells were plated per well in 24-well plates. […] After 24 hours reaction, the reaction fluid was centrifuged (13,000 rpm, 4° C., 20 minutes), and then the supernatant was tasted by ELISA kit (R&D system and eBioscience™) to detect the amount of TNF-α, IL-1β, IL-6, and IL-10. The experimental process is followed with the instructions of the kit.

[5] = test system: RAW264.7 cells; assay: MTT assay, proliferation induced by RANKL; settings: RAW264.7, 5 μM, 7.5 μM, 10 μM, FIG. 1
Experimental: Cells were plated onto 96-well plates at a density of 10^3 cells per well. After 24 hours incubation, the different concentrations of the different drugs were administrated into the plates. […] Subsequently, the medium was removed, and 100 μl/well isopropanol was added to solved formazan. The plates were shaken for 15 minutes and stood for 15 minutes, and then the absorbance was measured at wavelength of 540 nm and 630 nm. The ratio of the absorbance of treated cells relative to that of the control cells was calculated and expressed as a percentage of cell survival.

[6] = test system: c-Fos mRNA in RAW264.7 cells; assay: RT-PCR, RANKL-induced mRNA expression of c-Fos; settings: for RANKL-induced mRNA expression level of c-Fos: RAW264.7 cells, 24 hours, CTL 100%, mean ± SEM
Description: The culture medium was discarded. […] [table] f) Running • A.

**Q.** `Cn1c(=O)c2c(ncn2CCN2CCN(c3ccccc3Cl)CC2)n(C)c1=O` [KMUP-1, 7-[2-[4-(2-Chlorophenyl)piperazin-1-yl]ethyl] theophylline] was tested. Which “expression of NFATc1 induced by RANKL” value [1] did it give?
**A.** Its value is “can efficiently inhibit the expression of NFATc1 induced by RANKL”.

**Q.** And the “amount of MMP-9 protein induced by RANKL” value [2]?
**A.** The value was “can efficiently inhibit the amount of MMP-2 and MMP-9 proteins”.

**Q.** What about the “phosphorylation of Akt induced by RANKL” value [3] of the same compound?
**A.** The value was “can efficiently inhibit phosphorylation of Akt induced by RANKL”.

**Q.** What about the “RANKL-induced secretion of IL-1” value [4] of the same compound?
**A.** Its value is “presents a dose dependent inhibition phenomenon”.

**Q.** And the “cell proliferation induced by RANKL (MTT assay)” value [5]?
**A.** The value was “can inhibit the cell proliferation induced by RANKL”.

**Q.** What about the “effect on mRNA expression of c-Fos induced by RANKL (in words)” value ([6]; 10 ng/ml RANKL, summary of Table 1) of the same compound?
**A.** Its value is “inhibits the mRNA expression”.

**Q.** What about the “RANKL-induced mRNA expression level of c-Fos” value ([6]; RANKL 10 ng/ml + KMUP-1 1 μM) of the same compound?
**A.** Its value is 105.4 ± 8.1%.

**Q.** What about the “RANKL-induced mRNA expression level of c-Fos” value ([6]; RANKL 10 ng/ml + KMUP-1 2.5 μM) of the same compound?
**A.** Its value is 100.3 ± 4.7%.

**Q.** And the “RANKL-induced mRNA expression level of c-Fos” value ([6]; RANKL 10 ng/ml + KMUP-1 5 μM)?
**A.** Its value is 84.5 ± 5.2% ^b.

**Q.** And the “RANKL-induced mRNA expression level of c-Fos” value ([6]; RANKL 10 ng/ml + KMUP-1 7.5 μM)?
**A.** Its value is 67.1 ± 4.5% ^b.

**Q.** What about the “RANKL-induced mRNA expression level of c-Fos” value ([6]; RANKL 10 ng/ml + KMUP-1 10 μM) of the same compound?
**A.** Its value is 73.1 ± 6.3% ^b.
